# Measurements reported in patent US9993492B2, “Lysophospholipids and lysophospholipid analogues against honeybee brood diseases” (University of Graz, priority 2013, dated 2018).
# Read-outs that look alike come from different tables or passages of the source.
# How the values were obtained:
# Melissococcus plutonius = test: Antimicrobial assay in liquid Basal Medium against Melissococcus plutonius (MIC); format: cell-based; details: Melissococcus plutonius
# Description: M. pl. was cultured in liquid Basal Medium (BM) for 4 days at 35° C. and from here serial dilutions were carried out to estimate CFU/ml by plating onto BM agar plates. 5 days later CFU were count and concentration was estimated to be 3.46*10^6 CFU/ml. For the antimicrobial assay, an inoculum of 50 μl of the liquid culture is added to 1 mL of BM liquid medium. A set of different substances were tested in different concentrations (2, 5 and 10 ppm) in order to find out their inhibitory effect against M. pl growth. For substances tested, concentration applied and results see table 1.2. Three replicates per substance were included in the experiment. 5 days after the experiment was started OE (optical extinction) was measured at 600 nm.
# honeybee larvae = test: LPC tolerance in non-infected artificially reared larvae, mortality until day 12; format: in vivo, Apis mellifera; details: LPC 10 μg/larva on day 1, 2 and 3, no spores, replicates separated by /, Nlarvae 70/48/47/48/40
# Pl-infected larvae = test: In vivo effect of LPC on Pl-infected larvae; design: species or system Apis mellifera; details: LPC 10 μg/larva on day 1, 2 and 3 + 50 spores/larva (ERIC II, strain 233/00) on day 1, replicates separated by /, Nlarvae 71/48/48
# Description: First instar larvae were transferred into plastic queen cups and fed the following diets: On the first day 10 μL of diet containing 6% glucose, 6% fructose, 1% yeast extract and 50% royal jelly were fed. Test substances (1-O-oleoyl-sn-glycero-3-phosphocholine (oleoyl-LPC), stearic acid, lysophosphatidylinositol and linoleic acid) were added to the first diet in amounts of 0.5 to 10 μg/larvae. For infection with spores of Paenibacillus larvae, larvae were grafted into 5 μL of diet containing test substances and subsequently 5 μL of diet with about 50 added Pl spores were given. Larvae were not fed on the second day to assure the consumption of the given diet. On the third day 20 μL of diet containing 7.5% glucose, 7.5% fructose, 1.5% yeast extract and 50% royal jelly were fed. Amounts of 30, 40 and 60 μL of diet composed of 9% glucose, 9% fructose, 2% yeast extract and 50% royal jelly were fed on the 4th, 5th and 6th day (method modified after Aupinel et al. [Aupinel et al. 2005. Bull Insectol 58:107-111]. Larvae were incubated at 34.5° C. and 95% relative humidity which was reduced to 80% on day 7. The mortality was checked daily for the first 7 days and when individuals emerged from queen cups at day 18 after the transfer into cups. To reduce the time for sporulation of Pl in the lab for security reasons, infection tests with Pl spores were stopped at day 7 with some experiments extend to day 12.
# In vivo effect of LPC on Pl-infected larvae: Artificial larval rearing was performed as described above. Larvae were individually infected with a dose of c. 50 spores/larva (ERIC II, strain 233/00) given on the first day. LPC was administered on day 1, 2 and 3 in a dose of 10 μg/d. Mortality was checked daily until d 12.
# [1] = system: spores of Paenibacillus larvae; test: Spore assay in BHI liquid medium with plating for CFU; format: cell-based; details: lowest investigated dose (5 ppm); 114.6±28.4 spores per vial; 4 and 6 days
# Description: A stock solution containing spores at a known concentration is used to inoculate c. 100 spores/mL medium. This assay is carried out in 20 mL cultivation tubes containing 1.0 mL of BHI (brain heart infusion) liquid medium. To this medium containing c. […] spores, test compounds are added at different concentrations (e.g., 2, 5 and 10 ppm), together with positive control (penicillin G at 5 ppm) and blank control.
# To verify inoculation with c. 100 spores/mL, tubes containing BHI+spores are plated out immediately on agar plates to assess the number of colony forming units (CFU) after 6 days of incubation at 34.5° C.
# For the control of viability of the spores, the turbidity (due to germination of spores and formation of vegetative forms) of tubes containing BHI+spores is evaluated on day 4.
# For the test probes, bacterial growth is evaluated on day 4 and 6. For those tubes which are negative for bacterial growth, the whole medium (c. 1 mL) is plated onto agar plates and evaluated for CFUs after 2 and 6 days of incubation. CFUs visible after two days result from vegetative forms, while CFUs appearing after […] stem from spores.
# The results of these tests allow identifying whether the tested compounds have an effect on spore germination in liquid medium and the viability of the spores as assessed by their germination on agar plates. […]
# [2] = system: Paenibacillus larvae (Eric II test strain); test: Inhibition zone test on Columbia agar; format: cell-based; details: Paenibacillus larvae, 24 h, 34.5° C.
# Description: As test organisms, several different strains of Paenibacillus larvae were used.
# Overnight cultures of the vegetative forms of bacteria were prepared in BHI (brain heart infusion) liquid medium.
# For the inhibition zone test, 500 μL of overnight culture were added to 15-20 mL of Columbia agar, mixed and poured onto a petri dish. After the agar solidified, either punched wholes are filled with different amounts of test compounds or test compounds are pipetted on paper discs (5 mm Ø). The plate is then incubated for 24 h (34.5° C.) and zones of inhibition are measured and given in mm. Lactic acid and penicillin G were used as positive controls.
# E II—Eric II (test strain of Pl)
structure (smiles),measurement,setting,value
CCCCCCCC/C=C\CCCCCCCC(=O)OC[C@@H](O)COP(=O)([O-])OCC[N+](C)(C)C [1-O-oleoyl-sn-glycero-3-phosphocholine],MIC,"Melissococcus plutonius; 120 h, M. pl. in BM liquid medium, OE at 600 nm after 5 days, read-out: MIC",> 3.8 µM
same,MIC,"Melissococcus plutonius; 120 h, M. pl. in BM liquid medium, OE at 600 nm after 5 days, read-out: MIC (ppm)",2 µg/mL
same,MIC,"Melissococcus plutonius; read-out: in vitro M. pl. inhibitory activity, MIC",2.5 µg/mL
same,Ndead larvae total,honeybee larvae; days 1-12,9/6/5/3/3
same,Ndead larvae day 1,honeybee larvae,0/0/0/0/0
same,Ndead larvae day 2,honeybee larvae,0/2/0/0/0
same,Ndead larvae day 3,honeybee larvae,0/0/3/0/0
same,Ndead larvae day 4,honeybee larvae,1/0/1/0/1
same,Ndead larvae day 5,honeybee larvae,0/0/0/0/0
same,Ndead larvae day 6,honeybee larvae,1/1/0/0/1
same,Ndead larvae day 7,honeybee larvae,0/0/1/0/0
same,Ndead larvae day 8,honeybee larvae,2/0/0/0/0
same,Ndead larvae day 9,honeybee larvae,1/2/0/3/0
same,Ndead larvae day 10,honeybee larvae,2/0/0/0/0
same,Ndead larvae day 11,honeybee larvae,0/1/0/0/1
same,Ndead larvae day 12,honeybee larvae,2/0/0/0/0
same,Ndead larvae total,Pl-infected larvae; days 1-12,26/12/14
same,Ndead larvae day 1,Pl-infected larvae,0/0/0
same,Ndead larvae day 2,Pl-infected larvae,1/0/0
same,Ndead larvae day 3,Pl-infected larvae,3/2/4
same,Ndead larvae day 4,Pl-infected larvae,11/5/8
same,Ndead larvae day 5,Pl-infected larvae,7/2/0
same,Ndead larvae day 6,Pl-infected larvae,1/1/1
same,Ndead larvae day 7,Pl-infected larvae,1/1/0
same,Ndead larvae day 8,Pl-infected larvae,0/0/1
same,Ndead larvae day 9,Pl-infected larvae,0/0/0
same,Ndead larvae day 10,Pl-infected larvae,2/0/0
same,Ndead larvae day 11,Pl-infected larvae,0/1/0
same,Ndead larvae day 12,Pl-infected larvae,0/0/0
same,killing of vegetative forms upon germination of spores,[1],all vegetative forms are killed
same,zone of inhibition at 5 µg/disc,[2]; amount 5 μg,3.5 mm
same,zone of inhibition at 10 µg/disc,[2]; amount 10 μg,5 mm
